Source: PMC3109911 (The Journal of neuroscience : the official journal of the …, 2011)
Counter-ions that a name gives are not always drawn.

How the values were obtained:
[1] = test system: Schaffer-CA1 synaptic transmission in dorsal hippocampal slices; experiment: Field EPSP recordings from dorsal hippocampal slices; settings: SKF 38393 20 nM, n=3
[2] = test system: Schaffer-CA1 synaptic transmission in rat ventral hippocampal slices; experiment: Field EPSP recordings from ventral hippocampal slices
D1 receptors = experiment: ERK1/2 phosphorylation in transfected CHO cells expressing D1 receptors
D5 receptors = experiment: ERK1/2 phosphorylation in transfected CHO cells expressing D5 receptors
D1-like receptors = settings: ref Hersi et al., 1995; cited from earlier work
galanin receptor [3] = settings: ref Lang et al., 2007; cited from earlier work
galanin receptor [4] = settings: ref Lang et al., 2007; cited from earlier work; remark: listed apart in the source

In the case of Oc1cc2c(cc1O)C(c1ccccc1)CNCC2 (racemic) [SKF 38393, (±)-1-Phenyl-2,3,4,5-tetrahydro-(1H)-3-benzazepine-7,8-diol hydrobromide], the “effect on fEPSP slope” value [1] is reported as “devoid of any effect on fEPSP slope”, the “effect on synaptic transmission (fEPSP)” value ([2]; SKF 38393 20 nM after atropine (5 µM, at least 30 min before)) is reported as “did not significantly affect synaptic transmission” and the “effect on the slope of fEPSP” value ([2]; SKF 38393 20 nM alone, n=7) is reported as “virtually devoid of effect”.

With Br.Oc1cc2c(c(Cl)c1O)CCNCC2c1ccccc1 (racemic) [SKF 81297] the “ERK1/2 phosphorylation, time course” value (D1 receptors; SKF 81297 (text 50 nM; Fig. 4 legend 70 nM), cells expressing D1) was “time-dependently induced ERK1/2 phosphorylation” and the “ERK1/2 phosphorylation, time course” value (D5 receptors; SKF 81297 50 nM, cells expressing D5) was “time-dependently induced ERK1/2 phosphorylation”.

With CN1[C@@H]2CC[C@H]1C[C@@H](OC(=O)C(CO)c1ccccc1)C2 (some centres unmarked) [atropine] the “effect on fEPSP” value ([2]; atropine 5 µM by itself) was “did not significantly modify fEPSP”.

In the case of NCCc1ccc(O)c(O)c1 [dopamine], the “effect on hippocampal ACh release” value (D1-like receptors) is listed as “facilitates hippocampal ACh release by acting on D1-like receptors”.

For “galanin (1–13)-Pro-Pro-(Ala-Leu-)2Ala amide [M40]”, the “agonism in cell lines” value (galanin receptor [3]) is listed as “full agonists in some cell lines”, the antagonism in vivo (galanin receptor [4]) is listed as “clearly antagonists in vivo” and the “antagonism of SKF 81297-induced ERK1/2 phosphorylation” value (D1 receptors; antagonist 10 µM, 20 min prior, SKF 81297 70 nM, 5 min, cells only expressing D1) is listed as “not modified by the presence of M40”. For the same compound, the “antagonism of SKF 81297-induced ERK1/2 phosphorylation” value (D5 receptors; antagonist 10 µM, 20 min prior, SKF 81297 70 nM, 5 min, cells only expressing D5) was “not modified by the presence of M40”.
